Test results reported in patent publication US10544143B2, “4-azaindole compounds” (BRISTOL-MYERS SQUIBB COMPANY, priority 2017, dated 2020).
Read-outs that look alike come from different tables or passages of the source.

What was measured:
human TLR7 = human TLR7 (Homo sapiens (Human), UniProt Q9NYK1); assay: TLR7 inhibition reporter assay (HEK-Blue SEAP); format: cell-based
human TLR8 = human TLR8 (Homo sapiens (Human), UniProt Q9NR97); assay: TLR8 inhibition reporter assay (HEK-Blue SEAP); settings: read-out: TLR8 IC50;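 further: SEAP driven by IFN-β minimal promoter carrying NF-κB and AP-1 sites, compounds dosed 0.05 nM to 50 µM for 22 h, inhibition scaled between agonist-plus-DMSO and reference-inhibitor wells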
human TLR9 = human TLR9 (Homo sapiens (Human), UniProt Q9NR96); assay: TLR9 inhibition reporter assay (HEK-Blue SEAP); settings: read-out: TLR9 IC50;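 further: SEAP driven by an IFN-β minimal promoter with NF-κB and AP-1 sites, read after 22 h, compounds dosed 0.05 nM–50 µM, inhibition scaled between agonist plus DMSO and reference-inhibitor wells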
[1] = HEK-Blue cells overexpressing human TLR7, gardiquimod 7.5 μM stimulation, SEAP reporter
[2] = HEK-Blue cells overexpressing human TLR8, R848 15.9 μM stimulation, SEAP reporter
[3] = HEK-Blue cells overexpressing human TLR9, ODN2006 5 nM stimulation, SEAP reporter
[4] = HEK-Blue cells overexpressing human TLR7, SEAP reporter, gardiquimod 7.5 μM
[5] = HEK-Blue cells overexpressing human TLR8, SEAP reporter, R848 15.9 μM
[6] = HEK-Blue cells overexpressing human TLR9, SEAP reporter, ODN2006 5 nM
[7] = HEK-Blue human TLR7 cells, gardiquimod 7.5 μM
[8] = HEK-Blue human TLR8 cells, R848 15.9 μM
[9] = HEK-Blue human TLR9 cells, ODN2006 5 nM

Chain of human TLR8 (Q9NR97 27-1041): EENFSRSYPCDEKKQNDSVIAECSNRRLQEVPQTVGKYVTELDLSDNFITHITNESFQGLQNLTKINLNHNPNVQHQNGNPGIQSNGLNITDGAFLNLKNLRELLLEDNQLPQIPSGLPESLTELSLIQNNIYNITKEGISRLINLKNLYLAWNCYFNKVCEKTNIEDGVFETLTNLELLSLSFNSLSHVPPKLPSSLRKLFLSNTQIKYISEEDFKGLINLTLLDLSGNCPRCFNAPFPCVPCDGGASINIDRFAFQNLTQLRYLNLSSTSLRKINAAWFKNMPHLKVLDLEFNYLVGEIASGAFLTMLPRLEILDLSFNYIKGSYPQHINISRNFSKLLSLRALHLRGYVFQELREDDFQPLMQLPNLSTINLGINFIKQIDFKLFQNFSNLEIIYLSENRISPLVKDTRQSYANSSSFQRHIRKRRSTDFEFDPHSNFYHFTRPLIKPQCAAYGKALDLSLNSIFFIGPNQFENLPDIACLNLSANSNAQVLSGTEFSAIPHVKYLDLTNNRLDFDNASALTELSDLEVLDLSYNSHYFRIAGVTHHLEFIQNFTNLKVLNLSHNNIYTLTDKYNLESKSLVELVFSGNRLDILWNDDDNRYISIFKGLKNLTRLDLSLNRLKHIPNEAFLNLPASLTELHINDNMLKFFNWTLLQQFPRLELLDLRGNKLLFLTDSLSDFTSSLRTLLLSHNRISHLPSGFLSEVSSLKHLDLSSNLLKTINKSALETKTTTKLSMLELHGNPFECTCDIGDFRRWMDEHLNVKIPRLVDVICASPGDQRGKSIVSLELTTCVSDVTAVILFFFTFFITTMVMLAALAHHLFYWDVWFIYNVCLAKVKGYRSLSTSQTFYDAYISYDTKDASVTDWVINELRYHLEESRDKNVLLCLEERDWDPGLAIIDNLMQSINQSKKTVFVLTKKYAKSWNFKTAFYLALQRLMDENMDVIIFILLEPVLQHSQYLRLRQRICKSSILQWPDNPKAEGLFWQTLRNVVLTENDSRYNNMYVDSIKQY
Chain of human TLR9 (Q9NR96 26-1032): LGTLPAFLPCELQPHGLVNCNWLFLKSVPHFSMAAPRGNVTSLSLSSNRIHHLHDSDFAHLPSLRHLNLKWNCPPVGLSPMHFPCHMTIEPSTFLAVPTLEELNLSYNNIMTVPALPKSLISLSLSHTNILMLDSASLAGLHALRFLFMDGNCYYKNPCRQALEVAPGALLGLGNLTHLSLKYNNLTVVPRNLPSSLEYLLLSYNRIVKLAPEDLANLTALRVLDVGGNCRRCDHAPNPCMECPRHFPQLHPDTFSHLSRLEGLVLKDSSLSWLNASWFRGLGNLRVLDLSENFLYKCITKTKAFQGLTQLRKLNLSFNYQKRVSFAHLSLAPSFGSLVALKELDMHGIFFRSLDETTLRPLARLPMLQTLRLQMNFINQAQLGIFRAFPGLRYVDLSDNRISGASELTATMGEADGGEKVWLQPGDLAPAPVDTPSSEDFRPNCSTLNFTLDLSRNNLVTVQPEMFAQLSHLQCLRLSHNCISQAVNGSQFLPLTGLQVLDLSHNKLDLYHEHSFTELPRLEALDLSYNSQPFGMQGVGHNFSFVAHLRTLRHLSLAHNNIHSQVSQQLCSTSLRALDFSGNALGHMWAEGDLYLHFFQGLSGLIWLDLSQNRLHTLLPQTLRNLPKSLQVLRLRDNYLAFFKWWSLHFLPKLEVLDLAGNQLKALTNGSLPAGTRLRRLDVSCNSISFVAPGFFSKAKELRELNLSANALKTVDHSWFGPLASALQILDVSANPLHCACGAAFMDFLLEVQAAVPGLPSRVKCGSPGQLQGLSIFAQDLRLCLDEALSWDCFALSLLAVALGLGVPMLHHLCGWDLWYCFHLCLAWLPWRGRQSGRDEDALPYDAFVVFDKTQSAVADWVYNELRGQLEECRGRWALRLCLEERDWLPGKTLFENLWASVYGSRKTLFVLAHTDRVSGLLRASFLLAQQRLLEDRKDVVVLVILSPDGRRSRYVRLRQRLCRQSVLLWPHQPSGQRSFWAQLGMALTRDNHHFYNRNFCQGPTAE
Chain of human TLR7 (Q9NYK1 27-1049): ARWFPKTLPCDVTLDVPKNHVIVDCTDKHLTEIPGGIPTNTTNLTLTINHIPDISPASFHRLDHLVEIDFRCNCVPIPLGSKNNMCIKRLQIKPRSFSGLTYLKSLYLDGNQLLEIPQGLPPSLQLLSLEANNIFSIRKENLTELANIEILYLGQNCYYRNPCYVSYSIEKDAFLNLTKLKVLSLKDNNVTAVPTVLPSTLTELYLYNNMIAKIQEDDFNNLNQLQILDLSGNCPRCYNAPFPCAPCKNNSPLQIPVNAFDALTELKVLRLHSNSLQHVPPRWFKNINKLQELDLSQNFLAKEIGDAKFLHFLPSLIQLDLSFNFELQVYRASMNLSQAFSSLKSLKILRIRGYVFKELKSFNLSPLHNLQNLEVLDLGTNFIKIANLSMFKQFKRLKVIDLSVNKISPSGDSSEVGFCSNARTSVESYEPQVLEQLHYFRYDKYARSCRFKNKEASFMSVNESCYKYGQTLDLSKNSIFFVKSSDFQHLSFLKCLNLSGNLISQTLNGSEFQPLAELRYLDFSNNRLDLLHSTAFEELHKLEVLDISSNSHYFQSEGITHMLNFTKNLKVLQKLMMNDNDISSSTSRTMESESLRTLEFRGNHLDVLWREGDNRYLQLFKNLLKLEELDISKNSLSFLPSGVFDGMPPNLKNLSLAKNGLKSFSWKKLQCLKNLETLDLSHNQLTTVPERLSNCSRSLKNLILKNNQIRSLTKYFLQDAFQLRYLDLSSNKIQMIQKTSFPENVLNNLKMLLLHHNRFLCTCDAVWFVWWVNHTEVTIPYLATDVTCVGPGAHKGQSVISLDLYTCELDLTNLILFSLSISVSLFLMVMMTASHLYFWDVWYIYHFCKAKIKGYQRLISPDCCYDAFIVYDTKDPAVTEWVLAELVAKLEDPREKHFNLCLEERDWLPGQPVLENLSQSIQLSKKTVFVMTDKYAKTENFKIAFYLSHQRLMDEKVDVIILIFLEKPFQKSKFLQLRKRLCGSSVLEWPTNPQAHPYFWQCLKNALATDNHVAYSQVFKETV

Row | Compound | IC50 (human TLR7; [1]) | IC50 (human TLR8; [2]) | IC50 (human TLR9; [3]) | IC50 (human TLR7; [4]) | IC50 (human TLR8; [5]) | IC50 (human TLR9; [6]) | further results
1 | Cc1cc(-c2[nH]c3ccc(C4CCC(N5CC6(COC6)C5)CC4)nc3c2C(C)C)cn2ncnc12 (stereo not drawn) [Example 281] | 0.48 nM | 1.7 nM | 880 nM |  |  |  | 
2 | Cc1c(-c2[nH]c3ccc(C4CCN(C5CCN(C)C5=O)CC4)nc3c2C(C)C)cn2ncnc2c1C (stereo not drawn) [Example 563] |  |  |  | 0.83 nM | 2.4 nM | 4260 nM | 
3 | Cc1c(-c2[nH]c3ccc(N4CC5(CN(C(=O)CCN(C)C)C5)C4)nc3c2C(C)C)cn2ncnc2c1C [Example 1006] |  |  |  |  |  |  | IC50 (human TLR7; [7]): 3.6 nM; IC50 (human TLR8; [8]): 9.6 nM; IC50 (human TLR9; [9]): 339 nM
4 | Cc1c(-c2[nH]c3ccc(C4CCC(NC5COC5)CC4)nc3c2C(C)C)cn2cnnc2c1C (stereo not drawn) [Example 233] | 11 nM | 24 nM | 2660 nM |  |  |  | 
5 | COC1CN(C2CCC(c3ccc4[nH]c(-c5cn6ncnc6c(C)c5C)c(C(C)C)c4n3)CC2)C1 (stereo not drawn) [Example 1042] |  |  |  |  |  |  | IC50 (human TLR7; [7]): 2.2 nM; IC50 (human TLR8; [8]): 3.3 nM; IC50 (human TLR9; [9]): 3320 nM
6 | COc1cc(-c2[nH]c3ccc(N4CC(NCC(=O)N(C)C)C4)nc3c2C(C)C)cn2ncnc12 [Example 27] | > 3120 nM | > 3120 nM | > 50000 nM |  |  |  | 
7 | COCCNC1CCC(c2ccc3[nH]c(-c4cn5ncnc5c(C)c4C)c(C(C)C)c3n2)CC1 (stereo not drawn) [Example 431] |  |  |  | 16 nM | 11 nM | 4660 nM | 
8 | Cc1c(-c2[nH]c3ccc(C4CCC(N(C)C(C)C)CC4)nc3c2C(C)C)cn2ncnc2c1C (stereo not drawn) [Example 364] | 1.5 nM | 9.6 nM | 2520 nM |  |  |  | 
9 | Cc1c(-c2[nH]c3ccc(N4CCN(C(C)C)CC4)nc3c2C(C)C)cn2ncnc2c1C [Example 100] | 3.2 nM | 0.55 nM | 6150 nM |  |  |  | 
10 | Cc1c(-c2[nH]c3ccc(C4CCC(NCCS(C)(=O)=O)CC4)nc3c2C(C)C)cn2ncnc2c1C (stereo not drawn) [Example 450] |  |  |  | 0.61 nM | 0.71 nM | 1190 nM | 
11 | Cc1c(-c2[nH]c3ccc(N4C[C@@H](C)N(C(=O)CN(C)C(C)(C)C)C[C@@H]4C)nc3c2C(C)C)cn2ncnc2c1C [Example 911] |  |  |  |  |  |  | IC50 (human TLR7; [7]): 0.68 nM; IC50 (human TLR8; [8]): 1.5 nM; IC50 (human TLR9; [9]): 7020 nM
12 | CCn1cc(-c2[nH]c3ccc(C4CCC(N5CC6(COC6)C5)CC4)nc3c2C(C)C)c2cccnc21 (stereo not drawn) [Example 294] | 85 nM | 174 nM | 2270 nM |  |  |  | 
13 | Cc1cc(-c2[nH]c3ccc(C4CCN(C5CCOCC5)CC4)nc3c2C(C)C)cn(C)c1=O [Example 527] |  |  |  | 7.3 nM | 3 nM | 1160 nM | 
14 | Cc1c(-c2[nH]c3ccc(N4CCN(C(=O)CN(C(C)C)C(C)C)C[C@@H]4C)nc3c2C(C)C)cn2ncnc2c1C [Example 903] |  |  |  |  |  |  | IC50 (human TLR7; [7]): 3 nM; IC50 (human TLR8; [8]): 4.1 nM; IC50 (human TLR9; [9]): 35200 nM
15 | COc1cc(-c2[nH]c3cc(C)c(C4CCC(N5CC(F)(F)C5)CC4)nc3c2C(C)C)cn2ncnc12 (stereo not drawn) [Example 337] | 21 nM | 350 nM | > 50000 nM |  |  |  | 
16 | Cc1c(-c2[nH]c3ccc(C4CCC(NCC5CCCCS5(=O)=O)CC4)nc3c2C(C)C)cn2ncnc2c1C (stereo not drawn) [Example 464] |  |  |  | 0.68 nM | 0.85 nM | 1770 nM | 
17 | CCCCN(C)CC(=O)N1CCN(c2ccc3[nH]c(-c4cn5ncnc5c(C)c4C)c(C(C)C)c3n2)CC1 [Example 874] |  |  |  |  |  |  | IC50 (human TLR7; [7]): 1.2 nM; IC50 (human TLR8; [8]): 5.3 nM; IC50 (human TLR9; [9]): 15500 nM
18 | Cc1c(-c2[nH]c3ccc(N4CC5(CNC5)C4)nc3c2C(C)C)cn2ncnc2c1C [Example 740, 6-(3-isopropyl-5-(2,6-diazaspiro[3.3]heptan-2-yl)-1H-pyrrolo[3,2-b]pyridin-2-yl)-7,8-dimethyl-[1,2,4]triazolo[1,5-a]pyridine] |  |  |  | 2.2 nM | 5.1 nM | 623 nM | 
19 | COc1cc(-c2[nH]c3ccc(C4CN(Cc5c[nH]nn5)C4)nc3c2C(C)C)cn2ncnc12 [Example 651] |  |  |  | 1.7 nM | 24 nM | 687 nM | 
20 | Cc1c(-c2[nH]c3ccc(C4CC(N(CC5(C)COC5)CC5(C)COC5)C4)nc3c2C(C)C)cn2ncnc2c1C (stereo not drawn) [Example 633] |  |  |  | 40 nM | 33 nM | 25500 nM | 
